Assay results published in ChEMBL document CHEMBL1201862, “PubChem BioAssay data set” (2004).
Blank lines part the entries; values can stand above or below the compound they belong to. Activity calls are given as the source filed them.

Tests used:
[1] = target: T1, Estrogen receptor (Homo sapiens, UniProt P03372);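 also: potency for inhibiting coactivator peptide recruitment to the receptor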
T1 sequence (P03372 whole entry): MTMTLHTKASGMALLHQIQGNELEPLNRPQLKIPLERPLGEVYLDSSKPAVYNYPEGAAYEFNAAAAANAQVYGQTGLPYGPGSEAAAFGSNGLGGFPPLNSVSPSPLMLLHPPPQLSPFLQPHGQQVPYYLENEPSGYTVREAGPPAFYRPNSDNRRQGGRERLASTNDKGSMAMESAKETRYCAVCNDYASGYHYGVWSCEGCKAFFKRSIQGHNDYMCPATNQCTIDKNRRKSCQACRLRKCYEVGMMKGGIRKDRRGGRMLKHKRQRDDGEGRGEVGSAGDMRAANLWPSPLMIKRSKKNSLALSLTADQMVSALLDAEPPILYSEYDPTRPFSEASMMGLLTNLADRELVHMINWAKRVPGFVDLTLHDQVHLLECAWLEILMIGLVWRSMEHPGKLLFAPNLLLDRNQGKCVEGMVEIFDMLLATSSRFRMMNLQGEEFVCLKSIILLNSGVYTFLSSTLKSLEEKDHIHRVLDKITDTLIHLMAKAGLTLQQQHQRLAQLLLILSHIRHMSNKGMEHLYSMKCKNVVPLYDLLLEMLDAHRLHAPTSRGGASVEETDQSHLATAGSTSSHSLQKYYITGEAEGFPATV

[2] = NIH3T3 cell viability loss – ATP luminescence, mouse fibroblasts, counter-screen, dose response (AID 2010); format: functional, cell-based;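 also: cells exposed to compound for about 90 hours before reading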
[3] = cells
[4] = Trypanosoma cruzi growth suppression in host cells – NIH3T3 host cells, beta-gal luminescence, confirmation (AID 2044); format: functional, cell-based;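 also: intracellular parasites grown in NIH/3T3 mouse fibroblasts as host cells; luminescent beta-galactosidase reporter signal from transgenic T. cruzi replicating inside host cells; inhibitors lower the luminescence signal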
[5] = non-specific 3'UTR reporter inhibition in Clone20-Shn3RL – cell-based, Renilla luciferase, cherry-picked, counter-screen for Shn3 inhibitor project, dose response (AID 624133); format: functional
[6] = viability of HCT116 lacking mutant beta-catenin – cell-based, human colon tumor, dose response (AID 1045); format: functional;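 also: HCT116 colon tumor cells with beta catenin knocked out; cells exposed to compound for 60 hours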
[7] = target: T2, Fatty acid synthase (Homo sapiens, UniProt P49327); assay: inhibition of human FAS-TE enzyme activity – biochemical, kinetic fluorescence intensity, dose response (AID 624326); format: functional;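 also: rate of fluorescence rise from hydrolysis of a fluorogenic O-methyl fluorescein ester substrate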
T2 sequence (P49327 whole entry): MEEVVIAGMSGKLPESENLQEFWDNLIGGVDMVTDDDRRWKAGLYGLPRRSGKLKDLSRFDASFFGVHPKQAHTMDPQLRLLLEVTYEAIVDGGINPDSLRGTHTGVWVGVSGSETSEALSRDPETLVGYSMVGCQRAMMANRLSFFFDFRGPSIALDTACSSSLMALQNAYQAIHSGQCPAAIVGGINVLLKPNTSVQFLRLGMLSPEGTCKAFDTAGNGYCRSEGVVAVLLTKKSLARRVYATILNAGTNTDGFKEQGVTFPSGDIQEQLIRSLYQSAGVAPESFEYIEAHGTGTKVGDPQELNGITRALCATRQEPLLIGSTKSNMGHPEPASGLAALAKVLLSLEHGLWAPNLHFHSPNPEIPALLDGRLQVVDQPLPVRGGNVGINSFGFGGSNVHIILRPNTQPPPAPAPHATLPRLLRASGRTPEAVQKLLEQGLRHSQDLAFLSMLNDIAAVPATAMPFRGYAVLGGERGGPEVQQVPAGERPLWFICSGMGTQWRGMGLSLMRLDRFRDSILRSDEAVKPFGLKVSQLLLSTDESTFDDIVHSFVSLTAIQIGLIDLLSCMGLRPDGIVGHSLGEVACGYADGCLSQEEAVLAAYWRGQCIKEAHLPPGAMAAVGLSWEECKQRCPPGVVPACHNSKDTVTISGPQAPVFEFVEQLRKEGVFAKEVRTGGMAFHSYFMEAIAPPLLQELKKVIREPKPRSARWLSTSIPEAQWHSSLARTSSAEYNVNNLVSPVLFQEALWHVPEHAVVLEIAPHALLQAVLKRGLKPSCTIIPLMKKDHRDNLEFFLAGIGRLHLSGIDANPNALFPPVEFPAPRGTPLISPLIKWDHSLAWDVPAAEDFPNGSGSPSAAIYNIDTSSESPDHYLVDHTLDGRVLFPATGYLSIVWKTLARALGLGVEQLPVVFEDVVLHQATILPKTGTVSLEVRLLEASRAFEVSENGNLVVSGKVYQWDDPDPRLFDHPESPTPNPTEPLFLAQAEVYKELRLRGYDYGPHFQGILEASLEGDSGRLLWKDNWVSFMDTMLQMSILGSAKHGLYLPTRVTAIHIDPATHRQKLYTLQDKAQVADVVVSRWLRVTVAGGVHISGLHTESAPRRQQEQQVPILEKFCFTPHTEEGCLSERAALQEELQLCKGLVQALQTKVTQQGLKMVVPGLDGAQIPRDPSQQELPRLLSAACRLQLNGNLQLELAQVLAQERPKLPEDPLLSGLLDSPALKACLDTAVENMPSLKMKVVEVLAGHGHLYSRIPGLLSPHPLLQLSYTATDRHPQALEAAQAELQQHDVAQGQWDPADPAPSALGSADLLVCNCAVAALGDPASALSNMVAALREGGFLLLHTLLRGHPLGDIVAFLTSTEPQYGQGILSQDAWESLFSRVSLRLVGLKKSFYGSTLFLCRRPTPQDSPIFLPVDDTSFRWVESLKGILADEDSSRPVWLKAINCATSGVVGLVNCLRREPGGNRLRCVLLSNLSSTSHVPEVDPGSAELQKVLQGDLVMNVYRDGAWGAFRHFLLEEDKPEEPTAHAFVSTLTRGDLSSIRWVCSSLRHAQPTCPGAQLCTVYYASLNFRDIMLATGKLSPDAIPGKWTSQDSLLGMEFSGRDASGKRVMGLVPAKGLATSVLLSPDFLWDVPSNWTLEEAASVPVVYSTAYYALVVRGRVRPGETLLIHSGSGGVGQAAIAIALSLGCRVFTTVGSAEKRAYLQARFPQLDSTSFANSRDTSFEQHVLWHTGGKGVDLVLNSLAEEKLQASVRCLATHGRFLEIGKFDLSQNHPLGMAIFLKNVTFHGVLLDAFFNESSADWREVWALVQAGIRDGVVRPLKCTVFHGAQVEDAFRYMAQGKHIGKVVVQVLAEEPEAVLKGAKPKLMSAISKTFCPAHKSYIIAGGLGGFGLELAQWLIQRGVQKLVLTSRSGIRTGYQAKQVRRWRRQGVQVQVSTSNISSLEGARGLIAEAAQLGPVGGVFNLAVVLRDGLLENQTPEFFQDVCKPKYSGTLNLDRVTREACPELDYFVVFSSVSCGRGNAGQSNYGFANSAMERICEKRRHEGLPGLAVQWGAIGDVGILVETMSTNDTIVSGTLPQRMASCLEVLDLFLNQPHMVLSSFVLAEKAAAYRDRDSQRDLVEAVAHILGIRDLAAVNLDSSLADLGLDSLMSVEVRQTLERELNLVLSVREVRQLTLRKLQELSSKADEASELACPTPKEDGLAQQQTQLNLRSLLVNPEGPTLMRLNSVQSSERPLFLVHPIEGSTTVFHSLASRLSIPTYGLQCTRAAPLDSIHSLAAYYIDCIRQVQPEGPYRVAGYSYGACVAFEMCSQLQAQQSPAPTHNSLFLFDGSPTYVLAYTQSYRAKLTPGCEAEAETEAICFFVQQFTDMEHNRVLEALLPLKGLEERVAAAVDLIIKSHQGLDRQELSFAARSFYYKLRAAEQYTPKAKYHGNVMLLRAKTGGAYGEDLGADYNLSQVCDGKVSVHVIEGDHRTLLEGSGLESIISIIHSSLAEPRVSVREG

[8] = loss of viability in HepG2 cells – cell-based, CellTiter-Glo, cherry-picked, cytotoxicity control for Shn3 inhibitor project, dose response (AID 624134); format: functional
[9] = target: T3, Heat shock factor protein 1 (Mus musculus, UniProt P38532); assay: enhancement of HSF1-driven luciferase signal – cell-based, NIH3T3, luminescence, dose retest, confirmation (AID 435004); format: functional;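 also: stress induced by proteasome inhibitor MG132 added 30 min after compound; luciferase reporter driven by HSF1 response element in NIH3T3 cells; actives raise luminescence as potentiators of the MG132 stress response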
T3 sequence (P38532 whole entry): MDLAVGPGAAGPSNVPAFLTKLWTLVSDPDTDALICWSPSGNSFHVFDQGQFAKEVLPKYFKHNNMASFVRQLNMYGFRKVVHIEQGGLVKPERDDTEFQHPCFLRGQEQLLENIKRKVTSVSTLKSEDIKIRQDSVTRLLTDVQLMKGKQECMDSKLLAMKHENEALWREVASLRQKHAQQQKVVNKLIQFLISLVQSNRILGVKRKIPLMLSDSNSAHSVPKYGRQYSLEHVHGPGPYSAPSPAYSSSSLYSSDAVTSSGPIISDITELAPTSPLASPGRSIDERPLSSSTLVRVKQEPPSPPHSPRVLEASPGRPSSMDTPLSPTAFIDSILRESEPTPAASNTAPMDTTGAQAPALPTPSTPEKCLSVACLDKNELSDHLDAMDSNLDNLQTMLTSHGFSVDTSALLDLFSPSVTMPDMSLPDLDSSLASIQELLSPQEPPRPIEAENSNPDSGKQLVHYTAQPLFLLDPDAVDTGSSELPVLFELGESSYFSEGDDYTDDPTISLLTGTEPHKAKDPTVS

[10] = reduction of Shn3 3'UTR-driven luciferase in osteoblasts – cell-based, Clone20 osteoblasts, firefly luciferase, cherry-picked, dose response (AID 624132); format: functional;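 also: firefly luciferase luminescence from reporter carrying the Shn3 3'UTR in osteoblasts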
[11] = target: T2, Fatty acid synthase; assay: inhibition of human FAS-TE enzyme activity – biochemical, endpoint fluorescence intensity, uHTS hits, dose response (AID 624327); format: functional;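 also: fluorescence from hydrolysis of an O-methyl fluorescein acyl ester substrate by the enzyme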
[12] = Luminescence Cell-Based Dose Retest to Confirm Inhibitors of Cancer Stem Cells. [Related pubchem assays (depositor defined):AID2717, AID2721]; format: functional; settings: Homo sapiens
[13] = viability of PTEN-deleted HCT116 cells – cell-based, HCT116 PTEN knockout, dose response (AID 1047); format: functional;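 also: HCT116 colon tumor cells with PTEN knocked out; cells exposed to compound for 60 hours before readout; potency for loss of cell viability measured by luminescence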
[14] = target: T4, Mannose-6-phosphate isomerase (Homo sapiens, UniProt P34949); assay: MPI inhibition at elevated mannose 6-phosphate – biochemical, fluorescence intensity, high mannose 6-phosphate, primary screen (AID 1220)
T4 sequence (P34949 whole entry): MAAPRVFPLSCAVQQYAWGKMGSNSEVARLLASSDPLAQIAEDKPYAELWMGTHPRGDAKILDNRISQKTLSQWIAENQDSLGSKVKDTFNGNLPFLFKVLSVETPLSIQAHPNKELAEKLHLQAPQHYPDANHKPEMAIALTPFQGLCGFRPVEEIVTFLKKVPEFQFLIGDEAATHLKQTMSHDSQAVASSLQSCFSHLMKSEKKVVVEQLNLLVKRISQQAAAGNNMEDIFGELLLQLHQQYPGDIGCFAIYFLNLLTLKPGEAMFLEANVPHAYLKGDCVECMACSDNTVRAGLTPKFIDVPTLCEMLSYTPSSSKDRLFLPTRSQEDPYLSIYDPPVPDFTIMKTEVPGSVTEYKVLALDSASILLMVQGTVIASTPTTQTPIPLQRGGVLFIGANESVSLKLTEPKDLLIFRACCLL

[15] = target: Prothrombin (Homo sapiens, UniProt P00734); assay: Thrombin 1536 HTS Dose Response Confirmation. [Related pubchem assays: 1046 (Thrombin 1536 HTS; hits were confirmed in this assay)]; format: functional
[16] = cells; format: functional, cell-based
[17] = target: Cytochrome P450 2C9 (Homo sapiens, UniProt P11712)
Chain of Cytochrome P450 2C9 (P11712 whole entry): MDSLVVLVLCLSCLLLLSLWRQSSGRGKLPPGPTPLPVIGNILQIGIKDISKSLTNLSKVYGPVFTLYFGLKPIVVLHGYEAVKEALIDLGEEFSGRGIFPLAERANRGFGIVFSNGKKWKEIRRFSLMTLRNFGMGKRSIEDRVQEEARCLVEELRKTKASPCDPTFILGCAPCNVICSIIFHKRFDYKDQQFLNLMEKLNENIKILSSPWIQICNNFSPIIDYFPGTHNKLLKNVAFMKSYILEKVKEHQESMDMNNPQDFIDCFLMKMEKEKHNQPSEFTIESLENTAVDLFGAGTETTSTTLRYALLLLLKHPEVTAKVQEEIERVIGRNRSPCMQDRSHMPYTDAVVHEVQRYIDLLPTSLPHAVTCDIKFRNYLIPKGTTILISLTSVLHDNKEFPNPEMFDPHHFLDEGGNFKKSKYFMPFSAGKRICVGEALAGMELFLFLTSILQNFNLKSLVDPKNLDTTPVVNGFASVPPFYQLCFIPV

[18] = target: Cytochrome P450 3A4 (Homo sapiens, UniProt P08684);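 also: CYP3A4 tested as one member of a cytochrome P450 panel screen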
Chain of Cytochrome P450 3A4 (P08684 whole entry): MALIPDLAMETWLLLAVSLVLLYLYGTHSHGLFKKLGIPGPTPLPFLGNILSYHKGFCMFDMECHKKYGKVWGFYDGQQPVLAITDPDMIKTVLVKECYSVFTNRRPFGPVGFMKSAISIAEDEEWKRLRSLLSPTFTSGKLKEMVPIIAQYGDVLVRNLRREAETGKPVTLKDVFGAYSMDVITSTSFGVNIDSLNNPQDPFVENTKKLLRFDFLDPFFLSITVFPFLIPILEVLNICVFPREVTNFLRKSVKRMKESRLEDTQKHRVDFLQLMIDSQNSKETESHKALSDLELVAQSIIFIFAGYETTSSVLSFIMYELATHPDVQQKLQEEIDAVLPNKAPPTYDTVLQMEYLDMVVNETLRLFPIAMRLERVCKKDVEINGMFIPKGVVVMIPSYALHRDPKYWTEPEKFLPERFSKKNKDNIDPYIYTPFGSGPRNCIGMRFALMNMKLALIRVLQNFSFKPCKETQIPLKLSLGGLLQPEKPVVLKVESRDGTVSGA

[19] = target: Cytochrome P450 2D6 (Homo sapiens, UniProt P10635);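 also: CYP2D6 member of a cytochrome P450 panel assay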
Chain of Cytochrome P450 2D6 (P10635 whole entry): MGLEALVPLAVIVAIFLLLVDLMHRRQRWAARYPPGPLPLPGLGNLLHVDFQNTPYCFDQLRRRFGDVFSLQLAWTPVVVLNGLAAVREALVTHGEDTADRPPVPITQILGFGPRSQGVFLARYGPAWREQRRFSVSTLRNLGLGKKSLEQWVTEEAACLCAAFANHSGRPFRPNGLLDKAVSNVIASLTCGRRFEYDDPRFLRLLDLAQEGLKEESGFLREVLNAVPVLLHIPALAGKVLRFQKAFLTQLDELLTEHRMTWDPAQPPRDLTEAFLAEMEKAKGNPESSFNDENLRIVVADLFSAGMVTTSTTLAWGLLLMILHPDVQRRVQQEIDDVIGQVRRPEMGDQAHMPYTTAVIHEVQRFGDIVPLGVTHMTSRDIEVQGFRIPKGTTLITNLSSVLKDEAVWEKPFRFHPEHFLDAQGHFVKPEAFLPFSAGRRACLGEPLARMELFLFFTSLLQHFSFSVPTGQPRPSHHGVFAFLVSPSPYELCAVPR

[20] = cells; format: functional, cell-based; remark: listed apart in the source
[21] = viability loss of HPDE-C7K cells – cell-based, fluorescence, HTS, primary screen (AID 431); format: functional; settings: Homo sapiens
[22] = HPDE-C7 pancreatic duct cell viability loss – fluorescence, HTS (AID 430); format: functional, cell-based; settings: Homo sapiens
[23] = test system: HEK293; assay: NOD2 signaling inhibitors in MDP-stimulated cells, cell-based, uHTS, luminescence (AID 2001); format: functional; settings: Homo sapiens
[24] = test system: HEK293; assay: cells; format: functional, cell-based; settings: Homo sapiens
[25] = test system: HEK293; assay: cells; format: functional, cell-based; settings: Homo sapiens; remark: listed apart in the source
[26] = test system: HEK293; assay: cells; format: functional, cell-based; settings: Homo sapiens; remark: listed apart in the source
[27] = test system: HEK293; assay: inhibition of NOD1-driven NF-kB reporter – cell-based, luminescence, uHTS, primary screen (AID 1578); format: functional; settings: Homo sapiens
[28] = target: Nucleotide-binding oligomerization domain-containing protein 2 (Homo sapiens, UniProt Q9HC29); assay: inhibition of NOD2-driven NF-kB reporter – cell-based, luminescence, uHTS, HEK293 (AID 1566); format: functional
[29] = target: T5, Carboxy-terminal domain RNA polymerase II polypeptide A small phosphatase 1 (Homo sapiens, UniProt Q9GZU7); assay: CTDSP1 inhibitors, concentration-response, biochemical, absorbance readout, ultra-high-throughput screen actives (AID 540297); format: functional
T5 sequence (Q9GZU7 whole entry): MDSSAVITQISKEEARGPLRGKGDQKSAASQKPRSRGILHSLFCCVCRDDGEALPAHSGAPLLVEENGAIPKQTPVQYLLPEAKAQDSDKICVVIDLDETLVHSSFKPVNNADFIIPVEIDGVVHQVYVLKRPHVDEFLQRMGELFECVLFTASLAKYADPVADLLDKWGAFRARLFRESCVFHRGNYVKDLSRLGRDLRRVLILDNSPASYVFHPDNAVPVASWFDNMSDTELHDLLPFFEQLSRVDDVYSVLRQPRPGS

[30] = target: DNA dC->dU-editing enzyme APOBEC-3G (Homo sapiens, UniProt Q9HC16); assay: Dose Response confirmation of small molecule APOBEC3G DNA Deaminase Inhibitors via a fluorescence-based single-stranded DNA deaminase assay. [Related pubchem assays (depositor defined):AID493012, AID493028]; format: functional
Chain of DNA dC->dU-editing enzyme APOBEC-3G (Q9HC16 whole entry): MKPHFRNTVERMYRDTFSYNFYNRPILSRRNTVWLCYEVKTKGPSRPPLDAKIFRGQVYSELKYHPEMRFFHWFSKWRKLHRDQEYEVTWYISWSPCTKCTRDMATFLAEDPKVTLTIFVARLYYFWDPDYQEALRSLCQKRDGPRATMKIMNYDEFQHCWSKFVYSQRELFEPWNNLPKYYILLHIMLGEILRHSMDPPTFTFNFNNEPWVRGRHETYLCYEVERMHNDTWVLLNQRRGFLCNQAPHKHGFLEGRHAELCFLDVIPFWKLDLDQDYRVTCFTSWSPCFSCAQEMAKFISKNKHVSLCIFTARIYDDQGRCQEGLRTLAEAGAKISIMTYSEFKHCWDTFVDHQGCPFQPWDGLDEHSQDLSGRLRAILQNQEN

IC50 [1]: 7.11 µM (active)
Structure (SMILES): CS(=O)(=O)c1ccc2nc(NC(=O)CCC(=O)c3cccs3)sc2c1

Structure (SMILES): O=c1cc(CN2CCN(Cc3ccccc3)CC2)c2ccc(O)cc2o1
EC50 [2]: > 60 µM (not active) | EC50 [3]: 0.038 µM (active) | EC50 [4]: < 0.1 µM (active)

Structure (SMILES): O=[N+]([O-])c1c(NCCCO)cc(Sc2ccc(Cl)cc2)c2nonc12
AC50 [5]: 12.7 µM (active) | EC50 [6]: 9.46 µM (active) | IC50 [7]: 6.69 µM (active) | AC50 [8]: 25.4 µM (active) | EC50 [9]: 4.81 µM (active) | AC50 [10]: 5.63 µM (active) | IC50 [11]: 11.5 µM (active) | AC50 [12]: 4.49 µM (active) | EC50 [13]: 13.5 µM (active) | IC50 [14]: > 50 µM (not active)

Structure (SMILES): CN1CCc2c(sc3c2c(=O)n(-c2ccccc2)c2nnc(SCc4ccccc4)n32)C1
EC50 [2]: > 60 µM (not active) | EC50 [3]: 0.015 µM (active) | EC50 [4]: < 0.1 µM (active)

Structure (SMILES): CCOc1nc(NCCN2CCOCC2)nc(Nc2ccc(C)cc2)n1
IC50 [15]: > 50 µM (not active) | EC50 [16]: > 350 µM (not active) | AC50 [17]: 11.2 µM (inconclusive) | AC50 [18]: 15.8 µM (inconclusive) | AC50 [19]: 11.2 µM (inconclusive) | EC50 [20]: > 350 µM (not active)

Structure (SMILES): O=C(CCCN1C(=O)c2cccnc2C1=O)N1CC(=O)N(CCc2ccccc2)C(=O)C1
EC50 [21]: > 20 µM (not active) | EC50 [22]: > 20 µM (not active)

Structure (SMILES): COc1ccc(C(=O)NC(=C(Cl)Cl)S(=O)(=O)c2ccc(C)cc2)cc1
IC50 [23]: 8.96 µM (active) | IC50 [24]: > 20 µM (inactive) | IC50 [25]: 8.07 µM (active) | IC50 [26]: > 20 µM (inactive) | EC50 [27]: 12.3 µM (active) | EC50 [28]: > 20 µM (inactive)

IC50 [15]: > 50 µM (not active)
Structure (SMILES): Nc1nnc(SCCCC(=O)c2ccccc2)s1

Structure (SMILES): O=C(Nc1cc(S(=O)(=O)Nc2ccc(Cl)cc2)ccc1O)c1ccc(S(=O)(=O)N2CCCCCC2)cc1
IC50 [29]: 2.73 µM (active) | IC50 [30]: 73.7 µM (active)
